Several values for one entry are separate records, joined by “and”; a condition that tells them apart may be missing. Equal values may be shown once.
How the values were obtained:
[1] = molecular target: SARS-CoV-2 3CL^pro (Severe acute respiratory syndrome coronavirus 2 (2019-nCoV) (SARS-CoV-2), UniProt P0DTD1); experiment: biochemical; settings: for IC50: 3CL^pro FRET; for inhibition at 0.0001 µM / inhibition at 0.001 µM / inhibition at 0.005 µM / inhibition at 0.01 µM / inhibition at 0.02 µM / inhibition at 0.03 µM / inhibition at 0.05 µM / inhibition at 0.1 µM / inhibition at 0.5 µM / inhibition at 1 µM: read-out: Inhibitory activity on 3CL^pro (inhibition rate)
[2] = tested on: HepG2 cells; experiment: In vitro cytotoxicity, MTT method, HepG2 cells; format: cell-based; settings: for HEPG2 cell viability: 24 h, MTT
Experimental: (§1) HepG2, HEK293 and A549 cells were taken in logarithmic growth phase, digested with trypsin to prepare cell suspensions. The cell density was adjusted to 5×10^4 cells/mL, inoculating 180 μL per well in a sterile 96-well cell culture plate, incubating for 24 h at 37° C. in a 5% CO2 incubator. After the cells were attached to the bottom of the well plate, 20 μL of the drug solutions in a concentration gradient were added to each well, and 6 duplicate wells were set up in parallel, including blank group (no cells, no compounds) and control groups (no compounds). After incubating for 24 h at 37° C. in a 5% CO2 constant temperature incubator, 20 μL of 5 g/L MTT solution was added to each well for 4 h. After the incubation, the culture medium in the wells was gently aspirated, 100 μL of DMSO was added to each well, and the cells were shaken at low speed for 10 min on a shaker to fully dissolve the crystals to calculate cell viability. Cell viability (%)=(Sample Group GD Value−Blank Group GD Value)/(Control Group GD Value−Blank Group GD Value)

[3] = tested on: HEK293 cells; experiment: In vitro cytotoxicity, MTT method, HEK293 cells; format: cell-based; settings: for HEK293 cell viability: 24 h, MTT
Experimental: as §1

[4] = tested on: A549 cells; experiment: In vitro cytotoxicity, MTT method, A549 cells; format: cell-based; settings: for A549 cell viability: 24 h, MTT
Experimental: as §1

Cn1cc2cc(/N=c3\[nH]c(=O)n(Cc4cnn[nH]4)c(=O)n3Cc3cc(F)c(F)cc3F)c(Cl)cc2n1 [Compound 1]
IC50 [1]: 0.0926 µM | inhibition at 0.0001 µM ([1]; Conc 0.1 nM): 1.68% | inhibition at 0.001 µM ([1]; Conc 1 nM): 2.35% | inhibition at 0.005 µM ([1]; Conc 5 nM): 7.62% | inhibition at 0.01 µM ([1]; Conc 10 nM): 10.9% | inhibition at 0.02 µM ([1]; Conc 20 nM): 15.2% | inhibition at 0.03 µM ([1]; Conc 30 nM): 20.8% | inhibition at 0.05 µM ([1]; Conc 50 nM): 26.2% | inhibition at 0.1 µM ([1]; Conc 100 nM): 59.3% | inhibition at 0.5 µM ([1]; Conc 500 nM): 82.5% | inhibition at 1 µM ([1]; Conc 1000 nM): 96.2% | HEPG2 cell viability ([2]; 1.5625 nM): 97.09% | HEPG2 cell viability ([2]; 3.125 nM): 96.29% | HEPG2 cell viability ([2]; 6.25 nM): 97.83% | HEPG2 cell viability ([2]; 12.5 nM): 95.39% | HEPG2 cell viability ([2]; 25 nM): 90.35% | HEPG2 cell viability ([2]; 50 nM): 88.09% | HEPG2 cell viability ([2]; 100 nM): 87.72% | HEPG2 cell viability ([2]; 200 nM): 85.58% | HEPG2 cell viability ([2]; 400 nM): 82.62% | inhibitory rate on HepG2 cells compared with positive drugs ([2]; at any concentration): lower than that of PF-07321332 and S-217622 | HEK293 cell viability ([3]; 1.5625 nM): 99.03% | HEK293 cell viability ([3]; 3.125 nM): 96.70% | HEK293 cell viability ([3]; 6.25 nM): 94.02% | HEK293 cell viability ([3]; 12.5 nM): 89.50% | HEK293 cell viability ([3]; 25 nM): 86.03% | HEK293 cell viability ([3]; 50 nM): 88.49% | HEK293 cell viability ([3]; 100 nM): 84.87% | HEK293 cell viability ([3]; 200 nM): 83.54% | HEK293 cell viability ([3]; 400 nM): 81.17% | inhibitory rate on HEK293 cells compared with positive drugs ([3]; at any concentration): lower than that of PF-07321332 and S-217622 | A549 cell viability ([4]; 1.5625 nM): 99.46% | A549 cell viability ([4]; 3.125 nM): 98.65% | A549 cell viability ([4]; 6.25 nM): 98.82% | A549 cell viability ([4]; 12.5 nM): 98.93% | A549 cell viability ([4]; 25 nM): 98.71% | A549 cell viability ([4]; 50 nM): 98.76% | A549 cell viability ([4]; 100 nM): 98.69% | A549 cell viability ([4]; 200 nM): 95.01% | A549 cell viability ([4]; 400 nM): 93.02% | inhibitory rate on A549 cells compared with positive drugs ([4]; at any concentration): lower than that of PF-07321332 and S-217622

Cn1cc2cc(/N=c3\[nH]c(=O)n(Cc4cnn[nH]4)c(=O)n3Cc3ccccc3)c(Cl)cc2n1 [Compound 2]
IC50 ([1]; class symbols): 0.5 to 1 µM

Cc1ccc(Cn2c(=O)n(Cc3cnn[nH]3)c(=O)[nH]/c2=N\c2cc3cn(C)nc3cc2Cl)cc1 [Compound 3]
IC50 ([1]; class symbols): 0.5 to 1 µM

Cn1cc2cc(/N=c3\[nH]c(=O)n(Cc4cnn[nH]4)c(=O)n3Cc3ccc(C(C)(C)C)cc3)c(Cl)cc2n1 [Compound 4]
IC50 ([1]; class symbols): 0.5 to 1 µM

Cn1cc2cc(/N=c3\[nH]c(=O)n(Cc4cnn[nH]4)c(=O)n3Cc3ccc([N+](=O)[O-])cc3)c(Cl)cc2n1 [Compound 5]
IC50 ([1]; class symbols): 0.2 to 0.5 µM

COc1ccc(Cn2c(=O)n(Cc3cnn[nH]3)c(=O)[nH]/c2=N\c2cc3cn(C)nc3cc2Cl)cc1 [Compound 6]
IC50 ([1]; class symbols): > 1 µM

Cn1cc2cc(/N=c3\[nH]c(=O)n(Cc4cnn[nH]4)c(=O)n3Cc3ccc(OC(F)(F)F)cc3)c(Cl)cc2n1 [Compound 7]
IC50 [1]: < 0.1 µM | IC50 ([1]; class symbols): < 0.1 µM

Cn1cc2cc(/N=c3\[nH]c(=O)n(Cc4cnn[nH]4)c(=O)n3Cc3ccc(F)cc3)c(Cl)cc2n1 [Compound 8]
IC50 ([1]; class symbols): 0.2 to 0.5 µM

Cn1cc2cc(/N=c3\[nH]c(=O)n(Cc4cnn[nH]4)c(=O)n3Cc3ccc(Cl)cc3)c(Cl)cc2n1 [Compound 9]
IC50 ([1]; class symbols): 0.2 to 0.5 µM

Cn1cc2cc(/N=c3\[nH]c(=O)n(Cc4cnn[nH]4)c(=O)n3Cc3ccc(C(F)(F)F)cc3)c(Cl)cc2n1 [Compound 12]
IC50 [1]: 0.178 µM | inhibition at 0.0001 µM ([1]; Conc 0.1 nM): 0.76% | inhibition at 0.001 µM ([1]; Conc 1 nM): 2.33% | inhibition at 0.005 µM ([1]; Conc 5 nM): 5.73% | inhibition at 0.01 µM ([1]; Conc 10 nM): 8.52% | inhibition at 0.02 µM ([1]; Conc 20 nM): 12.1% | inhibition at 0.03 µM ([1]; Conc 30 nM): 16.5% | inhibition at 0.05 µM ([1]; Conc 50 nM): 21.2% | inhibition at 0.1 µM ([1]; Conc 100 nM): 37.2% | inhibition at 0.5 µM ([1]; Conc 500 nM): 68.7% | inhibition at 1 µM ([1]; Conc 1000 nM): 88.6% | HEPG2 cell viability ([2]; 1.5625 nM): 95.73% | HEPG2 cell viability ([2]; 3.125 nM): 95.07% | HEPG2 cell viability ([2]; 6.25 nM): 93.31% | HEPG2 cell viability ([2]; 12.5 nM): 90.22% | HEPG2 cell viability ([2]; 25 nM): 88.36% | HEPG2 cell viability ([2]; 50 nM): 86.83% | HEPG2 cell viability ([2]; 100 nM): 86.63% | HEPG2 cell viability ([2]; 200 nM): 81.38% | HEPG2 cell viability ([2]; 400 nM): 76.67% | HepG2 cell viability compared with positive drugs ([2]; at 12.5 nM and lower): higher than that of PF-07321332 and S-217622 | toxicity on HepG2 cells compared with positive drugs ([2]; at 400 nM and 200 nM): slightly higher than that of PF-07321332 and S-217622 | HEK293 cell viability ([3]; 1.5625 nM): 93.67% | HEK293 cell viability ([3]; 3.125 nM): 93.03% | HEK293 cell viability ([3]; 6.25 nM): 92.31% | HEK293 cell viability ([3]; 12.5 nM): 90.69% | HEK293 cell viability ([3]; 25 nM): 84.22% | HEK293 cell viability ([3]; 50 nM): 82.91% | HEK293 cell viability ([3]; 100 nM): 81.24% | HEK293 cell viability ([3]; 200 nM): 80.57% | HEK293 cell viability ([3]; 400 nM): 78.23% | HEK293 cell viability compared with positive drugs ([3]; at 12.5 nM and lower): higher than that of PF-07321332 and S-217622 | toxicity on HEK293 cells compared with positive drugs ([3]; at 400 nM and 200 nM): slightly higher than that of PF-07321332 and S-217622 | A549 cell viability ([4]; 1.5625 nM): 98.52% | A549 cell viability ([4]; 3.125 nM): 97.34% | A549 cell viability ([4]; 6.25 nM): 96.55% | A549 cell viability ([4]; 12.5 nM): 97.32% | A549 cell viability ([4]; 25 nM): 96.21% | A549 cell viability ([4]; 50 nM): 98.03% | A549 cell viability ([4]; 100 nM): 96.61% | A549 cell viability ([4]; 200 nM): 94.13% | A549 cell viability ([4]; 400 nM): 90.13% | A549 cell viability compared with positive drugs ([4]; at 12.5 nM and lower): higher than that of PF-07321332 and S-217622 | toxicity on A549 cells compared with positive drugs ([4]; at 400 nM and 200 nM): slightly higher than that of PF-07321332 and S-217622

Cc1cc(C)cc(Cn2c(=O)n(Cc3cnn[nH]3)c(=O)[nH]/c2=N\c2cc3cn(C)nc3cc2Cl)c1 [Compound 13]
IC50 ([1]; class symbols): 0.5 to 1 µM

COc1cc(Cn2c(=O)n(Cc3cnn[nH]3)c(=O)[nH]/c2=N\c2cc3cn(C)nc3cc2Cl)cc(OC)c1 [Compound 14]
IC50 ([1]; class symbols): 0.5 to 1 µM

Cn1cc2cc(/N=c3\[nH]c(=O)n(Cc4cnn[nH]4)c(=O)n3Cc3cc(F)cc(F)c3)c(Cl)cc2n1 [Compound 15]
IC50 [1]: < 0.2 µM

Cn1cc2cc(/N=c3\[nH]c(=O)n(Cc4cnnn4C)c(=O)n3Cc3cc(F)c(F)cc3F)c(Cl)cc2n1 [Compound 16]
IC50 [1]: < 0.2 µM

Cn1cc2cc(/N=c3\[nH]c(=O)n(Cc4cnnn4C4CC4)c(=O)n3Cc3cc(F)c(F)cc3F)c(Cl)cc2n1 [Compound 21]
IC50 ([1]; class symbols): 0.2 to 0.5 µM

CC(C)n1nncc1Cn1c(=O)[nH]/c(=N\c2cc3cn(C)nc3cc2Cl)n(Cc2cc(F)c(F)cc2F)c1=O [Compound 22]
IC50 [1]: < 0.2 µM

CC(C)Cn1nncc1Cn1c(=O)[nH]/c(=N\c2cc3cn(C)nc3cc2Cl)n(Cc2cc(F)c(F)cc2F)c1=O [Compound 23]
IC50 [1]: < 0.2 µM

Cn1cc2cc(/N=c3\[nH]c(=O)n(Cc4cnnn4C4CCC4)c(=O)n3Cc3cc(F)c(F)cc3F)c(Cl)cc2n1 [Compound 24]
IC50 ([1]; class symbols): 0.2 to 0.5 µM

(E)-6-(2-methyl-2H-indazol-5-yl)imino)-3-(1-ethyl-1H-1,2,3-triazol-5-yl)methyl)-1-(4-fluorobenzyl)-1,3,5-triazine-2,4-dione [Compound 19]
IC50 ([1]; class symbols): 0.2 to 0.5 µM

(E)-6-(6-chloro-2-methyl-2H-indazol-5-yl)imino)-3-(1-ethyl-1H-1,2,3-triazole-5-(yl)methyl)-1-(4-(trifluoromethyl)benzyl)-1,3,5-triazine-2,4-dione [Compound 18]
IC50 [1]: < 0.1 µM | IC50 ([1]; class symbols): < 0.1 µM

(E)-6-(6-chloro-2-methyl-2H-indazol-5-yl)imino)-3-(1-ethyl-1H-1,2,3-triazole-5-yl)methyl)-1-(2,4,5-trifluorobenzyl)-1,3,5-triazine-2,4-dione [Compound 17]
IC50 [1]: < 0.2 µM and < 0.1 µM and 0.123 µM | IC50 ([1]; class symbols): < 0.1 µM | Inhibitory activity on 3CL^pro (inhibition rate) ([1]; Conc 0.1 nM): 0.65% | Inhibitory activity on 3CL^pro (inhibition rate) ([1]; Conc 1 nM): 5.00% | Inhibitory activity on 3CL^pro (inhibition rate) ([1]; Conc 5 nM): 8.20% | Inhibitory activity on 3CL^pro (inhibition rate) ([1]; Conc 10 nM): 15.16% | Inhibitory activity on 3CL^pro (inhibition rate) ([1]; Conc 20 nM): 18.22% | Inhibitory activity on 3CL^pro (inhibition rate) ([1]; Conc 30 nM): 24.39% | Inhibitory activity on 3CL^pro (inhibition rate) ([1]; Conc 50 nM): 33.16% | Inhibitory activity on 3CL^pro (inhibition rate) ([1]; Conc 100 nM): 45.44% | Inhibitory activity on 3CL^pro (inhibition rate) ([1]; Conc 500 nM): 70.62% | Inhibitory activity on 3CL^pro (inhibition rate) ([1]; Conc 1000 nM): 89.73%

(E)-6-(6-chloro-2-methyl-2H-indazol-5-yl)imino)-3-(1-ethyl-1H-1,2,3-triazole-5-yl)methyl)-1-(4-fluorobenzyl)-1,3,5-triazine-2,4-dione [Compound 20]
IC50 ([1]; class symbols): 0.2 to 0.5 µM
